Test results reported in patent US20080312128A1, “Cellular Biomarker Antioxidant Assay and Uses Thereof” (priority 2005, published 2008).
Entries after “also recorded” stand apart in the source; their conditions may differ.

Tests used:
Assay type in all cases: cell-based, human
CRYBA = assay: Vitamin C pretreatment, OS-induced CRYBA transcription in RPE cells; details: for Inhibition of OS-induced CRYBA transcription: 0.0001-0.2 mM pretreatment
Experimental: (§1) RNA was isolated from the cells using a no-rinse method after 1 hour or 4 hours of OS, and compared to no-OS controls. Gene-specific expression was quantified by real-time PCR on an ABI 7700 System. […] Experiments were carried out as described above. Briefly, ARPE19 cells were grown to confluence. […] Following RNA extraction and reverse transcription, real-time PCR was used to assess levels of gene transcripts, as described above. […] The data are normalized to 0 at time 0 in order to minimize the mild variability in starting values for the Ct seen within each experiment. […] OS strongly induces gene expression in our gene panel, and the number of transcripts (amount of induction) is proportional to the level of OS. Therefore, protective effects of an antioxidant such as Vitamin C would be expected to reduce the level of transcripts. A protective effect is reflected in an inverse dose dependent (DD) relationship between the level of antioxidant agent (Vitamin C) and the level of transcripts. Higher pretreatment levels with the antioxidant should lead to a lower level of transcripts after OS (a lower change in Ct). An extremely low dose of Vitamin C (0.0001 mM) was chosen in these studies as a homeopathic dose that is not expected to be protective and should be similar to the positive control. This control was added to ensure that all cultures were treated in the same way, as we have determined that even minimal manipulations can have significant effects upon expression of these genes.

ATF3 = assay: Vitamin C pretreatment, OS-induced ATF3 transcription in RPE cells
Experimental: as §1, with “An extremely low dose of Vitamin C (0.0001 mM) was chosen in these studies as a homeopathic dose that is not expected to be protective and should be similar to the positive control.” left out

cFos = assay: Vitamin C pretreatment, OS-induced cFos transcription in RPE cells
Experimental: as §1

FosB = assay: Vitamin C pretreatment, OS-induced FosB transcription in RPE cells; details: for Inhibition of OS-induced FosB transcription: 0.0001-0.2 mM pretreatment
Experimental: as §1

HO-1 = assay: Vitamin C pretreatment, OS-induced HO-1 transcription in RPE cells; details: 500 μM H2O2, 1 hour and 4 hours after OS
Experimental: RNA was isolated from the cells using a no-rinse method after 1 hour or 4 hours of OS, and compared to no-OS controls. Gene-specific expression was quantified by real-time PCR on an ABI 7700 System. […] Experiments were carried out as described above. Briefly, ARPE19 cells were grown to confluence. […] Following RNA extraction and reverse transcription, real-time PCR was used to assess levels of gene transcripts, as described above. […] The data are normalized to 0 at time 0 in order to minimize the mild variability in starting values for the Ct seen within each experiment.

O=C1O[C@H]([C@@H](O)CO)C(O)=C1O [Vitamin C, L-ascorbic acid]
Inhibition of OS-induced CRYBA transcription (CRYBA; 500 μM H2O2, 1 hour): DD response is evident | Inhibition of OS-induced CRYBA transcription (CRYBA; 500 μM H2O2, 4 hours): DD response is more evident | Activation of CRYBA transcription by OS following pretreatment (CRYBA; summary, 500 μM H2O2): dose-dependent reduction | Response of OS-induced ATF3 transcription to pretreatment (ATF3; 0.0001-0.2 mM pretreatment, 500 μM H2O2): we do not see a response; also recorded: does not appear to be reduced; also recorded: does not inhibit | Response of OS-induced ATF3 transcription to pretreatment (ATF3; 500 μM H2O2, 4 hours): slight threshold response may be present | Inhibition of OS-induced cFos transcription (cFos; 0.0001-0.2 mM pretreatment, 500 μM H2O2, 1 hour): modest threshold response | Inhibition of OS-induced cFos transcription (cFos; 0.2 mM dose, 500 μM H2O2, 1 hour): strong dose-dependence | Inhibition of OS-induced cFos transcription (cFos; 500 μM H2O2, 4 hours): threshold response for the lower levels of Vitamin C is still seen | Activation of c-Fos transcription by OS following pretreatment (cFos; summary, 500 μM H2O2): dose-dependent reduction | Inhibition of OS-induced FosB transcription (FosB; 500 μM H2O2, 1 hour): modest dose response | Inhibition of OS-induced FosB transcription (FosB; 500 μM H2O2, 4 hours): the effect is quite clear | Activation of FosB transcription by OS following pretreatment (FosB; summary, 500 μM H2O2): dose-dependent reduction | Response of HO-1 transcription after OS to pretreatment (HO-1): does not demonstrate any response; also recorded: does not appear to be reduced
